According to patent US20100119655A1, “MUSCULAR PROTEIN DENATURATION INHIBITOR, ADDITIVE FOR A FISH MEAT-ORIGIN GROUND MEAT, FISH MEAT-ORIGIN GROUND MEAT CONTAINING THE SAME AND METHOD OF PRODUCING THE SAME” (Nagasaki Prefectural Government, priority 2007, published 2010):

How the values were obtained:
myosin = biological target: T1, myosin (Cyprinus carpio, UniProt Q90339); test: Heat denaturation of myosin at 35° C., followed by loss of Ca-ATPase activity (denaturation rate constant KD); assay type: biochemical, carp (Cyprinus carpio); settings: compound added by 1M; myosin heated at 35° C.; FIG. 1
T1 construct: myofibrils were prepared from dorsal meat of carp (Cyprinus carpio); from tissue; host or cells: dorsal muscle of carp
T1 sequence (Q90339 whole entry): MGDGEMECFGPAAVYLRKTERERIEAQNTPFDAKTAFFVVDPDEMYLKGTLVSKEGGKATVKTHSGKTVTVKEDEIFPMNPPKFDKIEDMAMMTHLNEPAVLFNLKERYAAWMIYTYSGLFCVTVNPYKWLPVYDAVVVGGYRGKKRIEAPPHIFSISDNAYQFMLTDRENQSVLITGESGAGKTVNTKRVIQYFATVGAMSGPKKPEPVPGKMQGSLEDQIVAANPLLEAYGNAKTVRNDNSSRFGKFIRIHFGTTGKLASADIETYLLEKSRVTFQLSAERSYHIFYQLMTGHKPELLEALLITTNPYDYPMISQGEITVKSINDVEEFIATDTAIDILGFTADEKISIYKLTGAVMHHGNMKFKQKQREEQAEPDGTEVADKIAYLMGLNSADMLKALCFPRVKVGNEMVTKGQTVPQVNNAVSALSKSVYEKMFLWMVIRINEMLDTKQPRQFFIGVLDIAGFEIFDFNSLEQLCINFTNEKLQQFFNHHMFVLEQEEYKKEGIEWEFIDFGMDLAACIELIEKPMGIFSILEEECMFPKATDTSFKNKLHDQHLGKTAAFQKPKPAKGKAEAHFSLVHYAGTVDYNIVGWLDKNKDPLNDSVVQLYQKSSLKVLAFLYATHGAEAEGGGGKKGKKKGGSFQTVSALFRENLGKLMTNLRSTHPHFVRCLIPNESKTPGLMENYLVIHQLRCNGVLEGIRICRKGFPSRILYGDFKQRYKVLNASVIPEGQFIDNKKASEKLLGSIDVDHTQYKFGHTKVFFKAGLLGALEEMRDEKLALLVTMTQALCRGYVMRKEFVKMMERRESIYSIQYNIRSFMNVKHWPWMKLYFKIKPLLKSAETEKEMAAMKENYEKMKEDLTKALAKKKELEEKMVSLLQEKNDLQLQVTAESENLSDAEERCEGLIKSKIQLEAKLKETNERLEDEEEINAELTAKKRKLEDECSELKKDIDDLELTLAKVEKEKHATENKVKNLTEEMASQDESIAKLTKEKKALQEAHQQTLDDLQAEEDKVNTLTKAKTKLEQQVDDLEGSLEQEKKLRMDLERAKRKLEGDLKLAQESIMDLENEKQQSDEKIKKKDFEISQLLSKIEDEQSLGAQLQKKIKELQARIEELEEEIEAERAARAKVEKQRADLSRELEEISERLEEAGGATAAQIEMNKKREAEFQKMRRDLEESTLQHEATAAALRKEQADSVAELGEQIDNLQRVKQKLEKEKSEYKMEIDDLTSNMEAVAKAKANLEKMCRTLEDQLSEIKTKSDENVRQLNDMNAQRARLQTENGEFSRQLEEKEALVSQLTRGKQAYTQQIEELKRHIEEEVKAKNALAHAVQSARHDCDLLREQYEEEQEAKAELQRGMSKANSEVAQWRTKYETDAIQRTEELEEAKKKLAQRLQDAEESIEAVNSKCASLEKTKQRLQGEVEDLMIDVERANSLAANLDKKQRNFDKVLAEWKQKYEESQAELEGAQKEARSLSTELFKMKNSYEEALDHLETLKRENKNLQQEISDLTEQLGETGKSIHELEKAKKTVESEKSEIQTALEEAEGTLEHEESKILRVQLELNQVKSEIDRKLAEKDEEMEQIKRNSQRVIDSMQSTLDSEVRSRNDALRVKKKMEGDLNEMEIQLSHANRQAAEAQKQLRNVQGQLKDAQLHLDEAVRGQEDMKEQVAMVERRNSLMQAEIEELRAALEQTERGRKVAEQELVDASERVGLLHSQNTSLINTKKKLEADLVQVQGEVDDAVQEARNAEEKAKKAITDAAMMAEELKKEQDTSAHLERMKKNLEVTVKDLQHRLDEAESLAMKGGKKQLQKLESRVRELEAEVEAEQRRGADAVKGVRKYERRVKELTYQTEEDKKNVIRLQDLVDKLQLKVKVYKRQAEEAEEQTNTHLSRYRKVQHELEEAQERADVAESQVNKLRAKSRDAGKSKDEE
Source text: (§1) In this embodiment, determination of the effect of inhibiting denaturation of fish meat-origin muscular proteins employs a method for calculating a rate of denaturation of myosin based on disappearance of Ca-ATPase activity as bioactivity of myosin {Tohru Oizumi et al.: Gyoruikingenseni-no-kanetsuhensei-ni-taisuru-to-oyobi-toarukohru-no-hogokohka-no-teiryokosatsu (Quantitative Examination of Effect of Protecting Sugars and Sugar Alcohols from Heat Denaturation of Fish Myofibril. Journal of the Japanese Society of Fisheries Science, 47, 901-908 (1981)}. Said method in this embodiment will be described as follows by dividing into a method for determining the effect of inhibiting heat denaturation and a method for determining effect of inhibiting freeze denaturation.
(§2) Firstly, a method for determining the effect of inhibiting heat denaturation is described. […] Then, changes in Ca-ATPase activity of the fish meat-origin muscular proteins heated are analyzed according to a first-order reaction equation to calculate a denaturation rate constant (KD). Ca-ATPase activity is measured by preparing a reaction composition liquid composed of 0.5M KCl, 25 mM Tris-maleate (pH 7.0), 5 mM CaCl2, 1 mM ATP and 0.2 to 0.3 mg/ml of fish meat-origin muscular proteins subjected to heating and ice cold and determining free inorganic phosphate quantitatively. Then, denaturation rate constant is calculated from Ca-ATPase activity obtained and heating time. Consequently, if the denaturation rate constant is smaller, the effect of inhibiting denaturation of fish meat-origin muscular proteins is significant, and if the denaturation rate constant is larger, the effect of inhibiting denaturation of fish meat-origin muscular proteins is small.
After myofibrils were prepared from dorsal meat of carp (Cyprinus carpio) according to a method by Noboru Katoh et al. {Noboru Katoh et al.: Gyruikingenseni-ATPase-no-seikagakuteki-kenkyu (Biochemical Research of Fish Myofibrillary ATPase). Journal of the Japanese Society of Fisheries Science, 43, 857-867 (1977)}, the myofibrils were dissolved in 0.5M KCl in the presence of ATP-Mg and 40 to 55% ammonium sulfate fraction was used as myosin by ammonium sulfate fractionation. […] After 5% perchloric acid was added thereto to stop the reaction and filter the product, free inorganic phosphate was subjected to colorimetric determination by phosphomolybdic acid method to calculate a logarithmic value of denaturation rate constant.

myofibrillar proteins [1] = test: Freeze denaturation of myofibrillar proteins, remaining Ca-ATPase activity after cryopreservation at −20° C.; assay type: biochemical, carp (Cyprinus carpio); settings: approximately 1 month, FIG. 3
Description: Next, a method for determining the effect of inhibiting freeze denaturation will be described. […] In this case, a comparison is made not by an absolute value of denaturation rate constant but a relative value thereof. The measurement of Ca-ATPase activity is the same as above.
The myofibrils were taken approximately 1 month later and added to 0.5M KCl, 25 mM Tris-maleate (pH 7.0), 5 mM CaCl2 and 1 mM ATP to prepare a reaction composition liquid to be reacted at 25° C. After 5% perchloric acid was added thereto to stop the reaction and filter the product, free inorganic phosphate was subjected to colorimetric determination by phosphomolybdic acid method to calculate Ca-ATPase activity and analyze the extent of denaturation observed from the decline of Ca-ATPase activity.

myofibrillar proteins [2] = test: Heat denaturation of myofibrillar proteins at 42° C., followed by loss of Ca-ATPase activity (denaturation rate constant KD); assay type: biochemical, carp (Cyprinus carpio); settings: for decline of rate of denaturation of myofibrillar proteins (logarithmic value of denaturation rate constant KD): compound added by 1M, myofibrils heated at 42° C., FIG. 2
Source text: as §1, §2
After 5% perchloric acid was added thereto to stop the reaction and filter the product, free inorganic phosphate was subjected to colorimetric determination by phosphomolybdic acid method to calculate a logarithmic value of denaturation rate constant.

myofibrillar proteins [3] = settings: relative to sorbitol; Non-Patent Document 1; cited from earlier work
myofibrillar proteins [4] = test: Dissolution of myofibrillar proteins, soluble proteins in supernatant after centrifugal separation; assay type: biochemical, carp (Cyprinus carpio); settings: addition of 0.6M; FIG. 4

Row | Compound | decline of rate of denaturation of myosin (logarithmic value of denaturation rate constant KD) (myosin) | effect of inhibiting freeze denaturation (Ca-ATPase activity), ranking (myofibrillar proteins [1]) | decline of rate of denaturation of myofibrillar proteins (logarithmic value of denaturation rate constant KD) (myofibrillar proteins [2]) | effect of stabilizing myofibrillar proteins, times sodium gluconate (myofibrillar proteins [2]; relative to sodium gluconate, worked out from own data and Non-Patent Document 1) | inhibition of heat denaturation of myofibrillar proteins, times sorbitol (myofibrillar proteins [3]) | dissolution of myofibrillar proteins at 0.6M, in words (myofibrillar proteins [4])
1 | CC(=O)[O-].[Na+] [sodium acetate] | 1.1 | smallest effect of inhibiting freeze denaturation | 0.3 | – | – | –
2 | O=C([O-])CC(O)(CC(=O)[O-])C(=O)[O-].[Na+].[Na+].[Na+] [sodium citrate] | 1.7 | strongest effect of inhibiting freeze denaturation | 0.9 | at least 1.3 times | – | –
3 | O=C([O-])[C@H](O)[C@@H](O)[C@H](O)[C@H](O)CO.[Na+] [sodium gluconate] | – | – | – | – | about 1.5 times | –
4 | N[C@@H](CCC(=O)[O-])C(=O)[O-].[Na+].[Na+] [sodium glutamate] | 1.7 | strongest effect of inhibiting freeze denaturation | 0.9 | – | – | –
5 | OC[C@@H](O)[C@@H](O)[C@H](O)[C@@H](O)CO [sorbitol] | 0.7 | smallest effect of inhibiting freeze denaturation, followed by sorbitol | 0.6 | – | – | not dissolved at all
